Entries after “also recorded” stand apart in the source; their conditions may differ.
Experiments:
Candida albicans = experiment: antimicrobial MIC test (Example 113); assay type: cell-based; settings: 1 to 4 days culture; initial test concentration 3 mM in 1% DMSO and dilutions
Procedure: (§1) Test substance or vehicle is added to test wells containing the selected microorganisms (1×10^4 to 5×10^5 CFU/ml)in cultures grown under controlled conditions. The final innoculum concentration is determined by reference to a standard optical density curve and adjusted as required. After 1 to 4 days, growth of the culture is examined and scored positive (+) for inhibition of growth or turbidity, or negative (−) for no effect upon growth or turbidity. An initial test concentration of 3 mM in 1% DMSO is used and dilutions are tested to establish the minimal inhibitory concentration (MIC).

Epidermophyton floccosum = experiment: antimicrobial MIC test (Example 113); assay type: cell-based; settings: 1 to 4 days culture; initial test concentration 3 mM in 1% DMSO and dilutions
Procedure: as §1

Microsporum canis = experiment: antimicrobial MIC test (Example 113); assay type: cell-based; settings: 1 to 4 days culture; initial test concentration 3 mM in 1% DMSO and dilutions
Procedure: as §1

Trichophyton rubrum = experiment: antimicrobial MIC test (Example 113); assay type: cell-based; settings: 1 to 4 days culture; initial test concentration 3 mM in 1% DMSO and dilutions
Procedure: as §1

Streptococcus faecalis = experiment: antimicrobial MIC test (Example 113); assay type: cell-based; settings: 1 to 4 days culture; initial test concentration 3 mM in 1% DMSO and dilutions
Procedure: as §1

[1] = system: 12-O-tetradecanoylphorbol-13-acetate (TPA) induced mouse ear inflammation; experiment: acute TPA induced mouse ear inflammation model (Example 111); assay type: in vivo, female BALB/ca mice; settings: vs vehicle
Excerpt: This was done by comparing a high dose, corresponding to Emax (the maximal obtainable effect representing the plateau of the dose-response curve) with the individual effects of the molar amount present of each component of the complex. If the effect of the complex is higher than the sum of the components the effect is synergistic. […] The positive control used in this study was betamethasone 17-valerate applied as a commercial preparation with maximum human dose (Celeston® Cutaneous Solution 0.1%, Shering-Plough).
The test substances were administered 20 minutes before and 20 minutes after application of TPA to the ear.
All groups were treated with 20 μl TPA solution 400 μg/ml in acetone, on the right ear.
Three hours after the TPA application the mice were sacrificed, the ears cut from the tip with a punch biopsy knife (8 mm diameter) and weighed.
Differences in relative ear oedema between the vehicle treated group and the other groups were tested for significance employing a non-parametric statistical method of analysis, the Mann-Whitney U test. The required level of significance was p<0.05.

[2] = system: sub-chronic TPA induced mouse ear inflammation; experiment: sub-chronic TPA (repeated application) mouse ear inflammation model (Example 112); assay type: in vivo, female BALB/ca mice
Procedure: Investigation of two complexes according to the invention in a recognized pharmacodynamic model of sub-chronic inflammation.
The objective of this study was to assess the therapeutic value of the complexes of the invention in a very demanding pharmacodynamic model of dermal inflammation. Repeated application of TPA to the ears of the mice within 48 hours yields an inflammatory lesion with infiltration of leukocytes and persistent swelling. The reapplication of TPA ([…]) after 48 hours produces an inflammation and ear oedema, which is more dramatic due to the involvement and activation of a vast number of inflammatory cells. Therefore the model is suitable for drug evaluation in relation to more aggravated or chronic inflammatory conditions. The test substance for evaluation is co-applied with the second TPA application. […]
Mean weights and standard deviations were calculated. Relative ear oedema was assessed as the weight difference between right and left ear of each mouse expressed as percent of the left ear. Percent inhibition of the relative ear oedema compared with the vehicle treated groups was calculated for the test substance and positive control treated group. […]

In the case of `CCCCCCCC(=O)OCC(O)CO` (racemic) [Rac-1-glyceryl-monocaprylate], the MIC (Candida albicans) is reported as “Not active at tested”, the MIC (Epidermophyton floccosum) is reported as “Not active at tested” and the MIC (Microsporum canis) is reported as “Not active at tested”. The MIC (Trichophyton rubrum) was “Not active at tested”, the MIC (Streptococcus faecalis) was “Not active at tested” and the “% Inhibition of relative ear oedema” value ([1]; 4.58 μmol/ear, given 20 min before and 20 min after TPA, ears weighed 3 h after TPA) was 22%.

For `CCCCC(=O)O[C@]1(C(=O)CO)[C@@H](C)C[C@H]2[C@@H]3CCC4=CC(=O)C=C[C@]4(C)[C@@]3(F)[C@@H](O)C[C@@]21C` [Betamethasone 17-valerate], the “% Inhibition of relative ear oedema” value ([1]; 0.02 mg/ear (Celeston Cutaneous Solution 0.1%), 20 min before and after TPA, 3 h after TPA) was 66% and the “% Inhibition of relative ear oedema” value ([2]; 0.02 mg/ear, 20 min before and after TPA re-application at 48 h, 3 h after TPA, vs vehicle) was 31%.

`NC(=O)c1cccnc1` [Niacinamide] was tested, and the “% Inhibition of relative ear oedema” value ([1]; 64.1 μmol/ear, given 20 min before and 20 min after TPA, ears weighed 3 h after TPA) was 18%.

With `C[C@]12CCC(=O)C=C1CC[C@@H]1[C@@H]2[C@@H](O)C[C@@]2(C)[C@H]1CC[C@]2(O)C(=O)CO` [hydrocortisone] the “effect in the sub-chronic TPA model” value ([2]; observation of the inventor on mild steroids) was “no effect; also recorded: no measurable effects”.
